Assay results taken from US4423215A, “Method of preparing sodium salts of imidazoledicarboxylic acid substituted cephalosporin derivatives” (Ajinomoto Company, Inc., priority 1981, dated 1983).
Counter-ions that a name gives are not always drawn. Like-named read-outs stand apart in the source and are kept apart here.

Assay: Acute toxicity, LD50 (mouse, i.v.)
Assay type: in vivo

SMILES	LD50	LD50 (disodium salt)
O=C(O)C1=C(C[n+]2ccc(CCS(=O)(=O)[O-])cc2)CS[C@@H]2[C@H](NC(=O)[C@H](NC(=O)c3[nH]cnc3C(=O)O)c3ccccc3)C(=O)N12 [dipotassium salt, 7B-[D--(-)-α-(4-carboxyimidazole-5-carboxyamide)-phenylacetamide]-3-(4-β-sulfoethyl-pyridinium)-methyl-3-cepham-4-carboxylic acid]	500 to 1000 mg/kg	
O=C(O)C1=C(C[n+]2ccc(CCS(=O)(=O)[O-])cc2)CS[C@@H]2[C@H](NC(=O)[C@H](NC(=O)c3[nH]cnc3C(=O)O)c3ccccc3)C(=O)N12 [disodium salt, 7B-[D--(-)-α-(4-carboxyimidazole-5-carboxyamide)-phenylacetamide]-3-(4-β-sulfoethyl-pyridinium)-methyl-3-cepham-4-carboxylic acid, disodium salt]		more than 3 g/kg
